This note sets out measurements from patent publication US9290529B2, “Carbonic anhydrase inhibitors and method of their production” (USTAV ORGANICKE CHEMIE A BIOCHEMIE AKADEMIE VED CESKE …, priority 2011, dated 2016).

Holding throughout (format): cell-based, human
The test system of assay [1] is HCT116 cells. Description: Flow cytometric measurement of intracellular pH (pHi), HCT116 expressing CAIX. As to conditions: for pHi: HCT116, carboranes at 1 μM, 24 hour incubation, control 7.516; for intracellular acidification in HCT116 cells: carboranes 1 μM versus acetazolamide 50 μM. As for the experimental part:
The effect of carborane CAIX (carbonic anhydrase IX) inhibitors was evaluated on colorectal cancer cell line HCT116 expressing CAIX enzyme versus CA IX negative cell line of T-lymphoblastic leukemia CCRF-CEM. Acetazolamide, a known inhibitor of CAIX, was used as a standard. HCT116/CCRF-CEM cells were cultivated in McCoy/RPMI Media supplemented with 10% FCS and antibiotics and seeded at high density ([…] per 3.5 cm dish) to induce pericellular hypoxia and thus stimulate CA IX expression. Measurement of pHi was assessed as described in Cianchi et al. [Cianchi F., et al. Selective inhibition of carbonic anhydrase IX decreases cell proliferation and induces […] apoptosis in human cancer cells. The Journal of Pharmacology and Experimental Therapeutics, 2010, Vol. 334, No. 3, 710-719].
[…] The pHi was measured by flow cytometry in cell cultures pretreated with 10 μM of pH sensitive probe carboxyseminaphtorhoda-fluor-1-acetoxymethyl ester (SNARF, Invitrogen, CA) for 15 min at 37° C. After incubation, the cells were washed twice with PBS. Because the addition of bicarbonate can affect pHi, all incubation and cell washes were performed in bicarbonate-free buffer. SNARF was excited at 488 nm and emitted at 580 and 640 nm. The ratio of the emission wavelengths at 640/580 nm was then used to estimate the pHi from a calibration curve. The calibration curve was prepared by nigericin clamp technique. In this method, after the SNARF labeling of untreated cells, aliquots of cell suspensions were re-suspended in a high potassium containing buffer at specific pH (usually 6.8, 7.0, 7.2, 7.4, 7.6 and 7.8). The cell suspensions were then clamped at a specific pH value by the addition of 0.03 μM nigericin (Sigma-Aldrich). Nigericin is a ionophore that allows the exchange of H for K ions, thus abolishing the pH gradient across the cell membrane. When the internal and external K concentrations are approximately equal, the pH rapidly equilibrates to the pH of the bathing solution. A total of 20,000 events were acquired on a FACS ARIA II flow cytometer (Becton. Dickinson) for further analysis.
The fluorescent ratio values (640/580 nm) calculated for each pH point were further used to construct calibration curve in Prism software (GraphPad Software, Inc., San Diego, Calif.), from which the pHi values in treated cells were determined (Table 3).
(A flow cytometer gives signals particle by particle.)

Assay [2] relates to CCRF-CEM. As to the kind of experiment: MTT cytotoxicity assay, CCRF-CEM. Conditions: 72 h. An excerpt:
(§1) One of the parameters used as the basis for colorimetric assays is the metabolic activity of viable cells. For example, a microtiter assay which uses the tetrazolium salt MTT is now widely used to quantitate cell proliferation and cytotoxicity (Hájduch et al., Cytotechnology, 19, 1996, 243-245). For instance, this assay is used in drug screening programs and in chemosensitivity testing. Because tetrazolium salts are cleaved only by metabolically active cells, these assays exclusively detect viable cells. In the case of the MTT assay, yellow soluble tetrazolium salt is reduced to a coloured water-insoluble formazan salt. After it is solubilized, the formazan formed can easily and rapidly be quantified in a conventional ELISA plate reader at 570 nm (maximum absorbancy). The quantity of reduced formazan corresponds to the number of vital cells in the culture.
(§2) All cells were purchased from the […] (ATCC), unless otherwise indicated: the CEM line are highly chemosensitive T-lymphoblastic leukemia cells, K562 cells were derived from patient with […] with bcr-abl translocation, A549 line is lung adenocarcinoma, HCT116 is colorectal tumor cell line and its p53 gene knock-down counterpart (HCT116p53−) is a model of human cancers with p53 mutation frequently associated with poor prognosis. The daunorubicin resistant subline of CEM cells (CEM-DNR bulk) and paclitaxel resistant subline K562-tax were selected in our laboratory by the cultivation of maternal cell lines in increasing concentrations of daunorubicine or paclitaxel, respectively (Noskova et al., Neoplasma 49, 2002, 418). The CEM-DNR bulk cells overexpress MRP-1 protein, while K562-tax cells overexpress P-glycoprotein, both proteins belong to family of ABC transporters and are involved in primary and/or acquired multidrug resistance phenomenon (Noskova et al., Neoplasma 49, 2002, 418). The cells were maintained in Nunc/Corning 80 cm^2 plastic tissue culture flasks and cultured in cell culture medium (DMEM/RPMI 1640 with 5 g/l glucose, 2 mM glutamine, 100 U/ml penicillin, 100 μg/ml streptomycin, 10% fetal calf serum, and NaHCO3).
(§3) This assay was performed according to Hajduch et al., Anti-Cancer Drugs 10, 1997, 1007. Cell suspensions were prepared and diluted according to the particular cell type and the expected target cell density (2 500-30 000 cells/well based on cell growth characteristics). Cells were added by pipette (80 μl) into 96-well microtiter plates. Inoculates were allowed a pre-incubation period of 24 h at 37° C. and 5% CO2 for stabilization. Four-fold dilutions, in 20-μl aliquots, of the intended test concentration were added to the microtiter plate wells at time zero. All test compound concentrations were examined in duplicate. Incubation of the cells with the test compounds lasted for 72 h at 37° C., in a 5% CO2 atmosphere at 100% humidity. At the end of the incubation period, the cells were assayed using MTT. Aliquots (10 μl) of the MTT stock solution were pipetted into each well and incubated for a further 1-4 h. After this incubation period the formazan produced was dissolved by the addition of 100 μl/well of 10% aq SDS (pH=5.5), followed by a further incubation at 37° C. overnight. The optical density (OD) was measured at 540 nm with a Labsystem iEMS Reader MF. Tumor cell survival (TCS) was calculated using the following equation: TCS=(ODdrug-exposed well/mean ODcontrol wells)×100%. The TCS50 value, the drug concentration lethal to 50% of the tumor cells, was calculated from appropriate dose-response curves.
(Tetrazolium dyes change colour on reduction, which living cells bring about.)

For assay [3], the system named is K562-TAX. As to the kind of experiment: MTT cytotoxicity assay, K562-TAX. As to conditions: 72 h.
From the text: as §1, §2, §3

A value given as a limit tells only on which side of the number the result lay.

Usually IC50 stands for the concentration that gives 50% inhibition. “1-methylenesulfamide-1,7-dicarba-closo-dodecaborane [CB-19]” came in with a pHi in assay [1] of 7.542. For the same substance, the values for the IC50 in assay [2] and in assay [3] were 71.9 ± 3.7 µM and 86.7 ± 12.7 µM, respectively.

In turn, “1-methylenesulfamide-3,3′-commo-bis(1,2-dicarba-3-cobalta(III)-closo-dodecabor)ate (1-) [CB-5]” returned a pHi in assay [1] of 7.483. In addition, the IC50 turned out to be 85.4 ± 22.6 µM in assay [2] and 66.4 ± 8 µM in assay [3].

Turning to “1-methylenesulfamide-9-phenyl-1,2-dicarba-closo-dodecaborane and 1-methylene-sulfamide-12-phenyl-1,2-dicarba-closo-dodecaborane [CB-8]”, in assay [1], the pHi turned out to be 7.112 and the “intracellular acidification in HCT116 cells” value (from here on “intracellular acidification”) is reported as “better than acetazolamide”. This substance showed an IC50 in assay [2] of 73.4 ± 6.8 µM. Also, the IC50 in assay [3] was determined as 79.6 ± 10.9 µM.

In the case of “1-methylensulfamide-1,2-dicarba-closo-dodekaborane [CB-1]”, the pHi in assay [1] was found to be 7.561. The results for the half-inhibitory concentration (IC50) in assay [2] and in assay [3] were 61.8 ± 10.6 µM and 81.5 ± 11 µM, respectively.

In turn, “1-sulfamide-closo-1-carbadodecaborate (1-) [CB-3]” displayed a pHi in assay [1] of 7.479. In addition, the 50% inhibitory concentration (IC50) in assay [2] and in assay [3] was at least 100 µM throughout.

“7-methylensulfamide-8-phenyl-(7,8-nido-dikarbaundekabor)ate (1-) [CB-6]”: in assay [1], the pHi is recorded as 7.192 and the “intracellular acidification” value is reported as “better than acetazolamide”. In assay [2], this substance yielded an IC50 of 20.2 ± 1.7 µM. Moreover, in assay [3], the concentration for half-maximal inhibition (IC50) is 56.9 ± 15.1 µM.

In the case of “7-methylensulfamide-(7,8-nido-dicarbaundekaborate) (1-) [CB-2]”, the pHi in assay [1] came to 7.572. In addition, the IC50 in assay [3] was found to be 99.9 ± 0.2 µM.

In turn, “8-butyloxysulfamide-3,3′-commo-bis(decahydro-1,2-dicarba-3-cobalta(III)-closo-dodekabor)ate (1-) [CB-16]” displayed a pHi in assay [1] of 7.563. The IC50 in assay [2] is 89.9 ± 6 µM; in assay [3] it was 95.8 ± 4.4 µM.

On to “8-diethyleneoxysulfamide-3,3′-commo-bis(decahydro-1,2-dicarba-3-cobalta(III)-closo-dodekabor)ate (1-) [CB-17]”, for which the pHi in assay [1] is listed as 7.571. The IC50 was 95.1 ± 5 µM in assay [2] and at least 100 µM in assay [3].

“8-ethylaminomethylsulfamide-8″-methoxy-3,3′-commo-bis(decahydro-1,2-dicarba-3-cobalta(III)-closo-dodecabor)ate (1-) [CB-15]” came in with a pHi in assay [1] of 7.343. The “intracellular acidification” value in assay [1] is “better than acetazolamide”. Further, the IC50 was 17.3 ± 1.2 µM in assay [2] and 16.6 ± 1.2 µM in assay [3].

In turn, “8-methylensulfamide-8″-methoxy-3,3′-commo-bis(1,2-dicarba-3-cobalta(III)-closo-dodecabor)ate (1-) [CB-4]” returned a pHi in assay [1] of 7.538. The figures for the IC50 in assay [2] and in assay [3] were 61.7 ± 17.8 µM and 55.2 ± 4.7 µM, respectively.

In the case of “8-propylenesulfamide-7-phenyl-(7,8-nido-dicarbaundecabor)ate (1-) [CB-13]”, the pHi in assay [1] is listed as 7.51. For the same substance, the half-maximal inhibitory concentration (IC50) amounted to 62 ± 3 µM in assay [2] and 64.2 ± 4.5 µM in assay [3].

Substance “9-sulfamide-9′-amine-2,2′-commo-bis(1,7,9-trikarba-2-ferra(II)-kloso-dodekabor)ane [CB-12]” had a pHi in assay [1] of 7.704. In addition, the concentration for half-maximal inhibition (IC50) in assay [2] and in assay [3] was at least 100 µM in each case.

For “10-sulfamide-9′-amine-2,2′-commo-(1,7,10-tricarba-1′,7′,9′-tricarba-2-ferra (II)-closo-dodekabor)ane [CB-10]”, the pHi in assay [1] is reported as 7.688. In addition, the IC50 in assay [2] amounted to 79.5 ± 22.7 µM; in assay [3], 73.6 ± 11.1 µM.

Consider “Di(methylenesulfamide)-1,7-dicarba-closo-dodecaborane [CB-20]”, for which the pHi in assay [1] came to 7.561. The results for the IC50 in assay [2] and in assay [3] were 84.5 ± 5.3 µM and 96.3 ± 5.8 µM, respectively.
